Assays:
Experiment in all cases: relative viability (nuclei count vs DMSO), 5 days (fraction); higher = more cells survive
[1] = tested on: LCLC-97TM1
Summary of the method: (§1)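 Relative viability divides the nuclei count in treated wells by that in vehicle wells. Lung cancer cell lines were seeded in 1536-well plates, dosed by pin tool the next day, and fixed and stained after 5 days in one step with final 0.05% Triton X-100, 1% formaldehyde and 1 ug/ml Hoechst. Dosing was a single drug or a fixed anchor-drug dose plus five library-drug doses (not always all listed) in √10 steps, and values are medians of duplicate plates imaged at 4×.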

[2] = tested on: NCI-H2347
Summary of the method: as §1

[3] = tested on: EMC-BAC-2
Summary of the method: as §1

[4] = tested on: NCI-H1734
Summary of the method: as §1

[5] = tested on: NCI-H322M
Summary of the method: as §1

[6] = tested on: HOP-62
Summary of the method: as §1

[7] = tested on: LXF-289
Summary of the method: as §1

[8] = tested on: SW 1573
Summary of the method: as §1

[9] = tested on: NCI-H661
Summary of the method: as §1

[10] = tested on: EPLC-272H
Summary of the method: as §1

[11] = tested on: H3255
Summary of the method: as §1

[12] = tested on: NCI-H647
Summary of the method: as §1

[13] = tested on: NCI-H1915
Summary of the method: as §1

[14] = tested on: NCI-H2126
Summary of the method: as §1

[15] = tested on: NCI-H2023
Summary of the method: as §1

[16] = tested on: NCI-H2085
Summary of the method: as §1

[17] = tested on: NCI-H2009
Summary of the method: as §1

[18] = tested on: PC-14
Summary of the method: as §1

[19] = tested on: NCI-H1563
Summary of the method: as §1

[20] = tested on: SK-LU-1
Summary of the method: as §1

[21] = tested on: NCI-H1993
Summary of the method: as §1

For `O=c1cc(N2CCOCC2)oc2c(-c3cccc4c3sc3ccccc34)cccc12` + Nc1nc2[nH]cc(CCc3ccc(C(=O)N[C@@H](CCC(=O)O)C(=O)O)cc3)c2c(=O)[nH]1 [Pemetrexed] (partner 0.2 µM), the relative viability ([1]; first compound 0.01 µM) was 0.189, the relative viability ([1]; first compound 0.03162 µM) was 0.162 and the relative viability ([1]; first compound 0.1 µM) was 0.202. For the same compound, the relative viability ([1]; first compound 0.3162 µM) was 0.162, the relative viability ([1]; first compound 1 µM) was 0.177 and the relative viability ([2]; first compound 0.01 µM) was 0.458. It also gave a relative viability ([2]; first compound 0.03162 µM) of 0.472, a relative viability ([2]; first compound 0.1 µM) of 0.415 and a relative viability ([2]; first compound 0.3162 µM) of 0.433. The relative viability ([2]; first compound 1 µM) was 0.44, the relative viability ([3]; first compound 0.01 µM) was 0.459 and the relative viability ([3]; first compound 0.03162 µM) was 0.43. It also gave a relative viability ([3]; first compound 0.1 µM) of 0.457, a relative viability ([3]; first compound 0.3162 µM) of 0.477 and a relative viability ([3]; first compound 1 µM) of 0.456. The relative viability ([4]; first compound 0.01 µM) was 0.453, the relative viability ([4]; first compound 0.03162 µM) was 0.425 and the relative viability ([4]; first compound 0.1 µM) was 0.406. It also gave a relative viability ([4]; first compound 0.3162 µM) of 0.412, a relative viability ([4]; first compound 1 µM) of 0.396 and a relative viability ([5]; first compound 0.01 µM) of 0.611. For the same compound, the relative viability ([5]; first compound 0.03162 µM) was 0.613, the relative viability ([5]; first compound 0.3162 µM) was 0.617 and the relative viability ([5]; first compound 1 µM) was 0.61. It also gave a relative viability ([6]; first compound 0.01 µM) of 0.303, a relative viability ([6]; first compound 0.03162 µM) of 0.344 and a relative viability ([6]; first compound 0.1 µM) of 0.276. The relative viability ([6]; first compound 0.3162 µM) was 0.39, the relative viability ([6]; first compound 1 µM) was 0.384 and the relative viability ([7]; first compound 0.01 µM) was 0.879. It also gave a relative viability ([7]; first compound 0.03162 µM) of 0.925, a relative viability ([7]; first compound 0.1 µM) of 0.913 and a relative viability ([7]; first compound 0.3162 µM) of 0.864. For the same compound, the relative viability ([7]; first compound 1 µM) was 0.963, the relative viability ([8]; first compound 0.01 µM) was 0.847 and the relative viability ([8]; first compound 0.03162 µM) was 0.937. For the same compound, the relative viability ([8]; first compound 0.1 µM) was 0.824, the relative viability ([8]; first compound 0.3162 µM) was 0.857 and the relative viability ([8]; first compound 1 µM) was 0.778. The relative viability ([9]; first compound 0.01 µM) was 0.867, the relative viability ([9]; first compound 0.03162 µM) was 0.898 and the relative viability ([9]; first compound 0.1 µM) was 0.95. The relative viability ([9]; first compound 0.3162 µM) was 0.925, the relative viability ([9]; first compound 1 µM) was 0.892 and the relative viability ([10]; first compound 0.01 µM) was 0.344. The relative viability ([10]; first compound 0.03162 µM) was 0.361, the relative viability ([10]; first compound 0.1 µM) was 0.334 and the relative viability ([10]; first compound 0.3162 µM) was 0.368. For the same compound, the relative viability ([10]; first compound 1 µM) was 0.442, the relative viability ([11]; first compound 0.01 µM) was 0.552 and the relative viability ([11]; first compound 0.03162 µM) was 0.617. It also gave a relative viability ([11]; first compound 0.1 µM) of 0.531, a relative viability ([11]; first compound 0.3162 µM) of 0.585 and a relative viability ([11]; first compound 1 µM) of 0.553. It also gave a relative viability ([12]; first compound 0.01 µM) of 0.187, a relative viability ([12]; first compound 0.03162 µM) of 0.183 and a relative viability ([12]; first compound 0.1 µM) of 0.184. For the same compound, the relative viability ([12]; first compound 0.3162 µM) was 0.209, the relative viability ([12]; first compound 1 µM) was 0.178 and the relative viability ([13]; first compound 0.01 µM) was 0.495. For the same compound, the relative viability ([13]; first compound 0.03162 µM) was 0.534, the relative viability ([13]; first compound 0.1 µM) was 0.486 and the relative viability ([13]; first compound 0.3162 µM) was 0.441. The relative viability ([13]; first compound 1 µM) was 0.486, the relative viability ([14]; first compound 0.01 µM) was 0.713 and the relative viability ([14]; first compound 0.03162 µM) was 0.72. It also gave a relative viability ([14]; first compound 0.1 µM) of 0.636, a relative viability ([14]; first compound 0.3162 µM) of 0.668 and a relative viability ([14]; first compound 1 µM) of 0.674. It also gave a relative viability ([15]; first compound 0.01 µM) of 0.284, a relative viability ([15]; first compound 0.03162 µM) of 0.276 and a relative viability ([15]; first compound 0.1 µM) of 0.227. The relative viability ([15]; first compound 0.3162 µM) was 0.249, the relative viability ([15]; first compound 1 µM) was 0.161 and the relative viability ([16]; first compound 0.01 µM) was 0.905. The relative viability ([16]; first compound 0.03162 µM) was 0.851, the relative viability ([16]; first compound 0.1 µM) was 0.849 and the relative viability ([16]; first compound 0.3162 µM) was 0.865. The relative viability ([16]; first compound 1 µM) was 0.867, the relative viability ([17]; first compound 0.01 µM) was 0.929 and the relative viability ([17]; first compound 0.03162 µM) was 1.04. For the same compound, the relative viability ([17]; first compound 0.1 µM) was 1.01, the relative viability ([17]; first compound 0.3162 µM) was 1.01 and the relative viability ([17]; first compound 1 µM) was 0.998. It also gave a relative viability ([18]; first compound 0.01 µM) of 0.133, a relative viability ([18]; first compound 0.03162 µM) of 0.153 and a relative viability ([18]; first compound 0.1 µM) of 0.131. The relative viability ([18]; first compound 0.3162 µM) was 0.114, the relative viability ([18]; first compound 1 µM) was 0.132 and the relative viability ([19]; first compound 0.01 µM) was 0.863. The relative viability ([19]; first compound 0.03162 µM) was 0.778, the relative viability ([19]; first compound 0.1 µM) was 0.761 and the relative viability ([19]; first compound 0.3162 µM) was 0.767. It also gave a relative viability ([19]; first compound 1 µM) of 0.641, a relative viability ([20]; first compound 0.01 µM) of 0.963 and a relative viability ([20]; first compound 0.03162 µM) of 0.975. For the same compound, the relative viability ([20]; first compound 0.1 µM) was 1.02, the relative viability ([20]; first compound 0.3162 µM) was 1 and the relative viability ([20]; first compound 1 µM) was 0.953. It also gave a relative viability ([21]; first compound 0.01 µM) of 0.624, a relative viability ([21]; first compound 0.03162 µM) of 0.524 and a relative viability ([21]; first compound 0.1 µM) of 0.621. The relative viability ([21]; first compound 0.3162 µM) was 0.54 and the relative viability ([21]; first compound 1 µM) was 0.553.

— the supplement of paper PMC10307832
